Results as given in PubChem BioAssay (NCI).
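A five-concentration, 48-hour dose response in 96-well plates underlies each endpoint, interpolated linearly between surrounding concentrations. TGI: total growth inhibition.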

Experiments:
Test in all cases: inhibition of tumour cell growth, NCI panel, 48 h
A549 NSCLC = system: A549 NSCLC
HOP-62 NSCLC = system: HOP-62 NSCLC
HOP-92 NSCLC = system: HOP-92 NSCLC
IGROV1 ovarian = system: IGROV1 ovarian
MALME-3M melanoma = system: MALME-3M melanoma
NCI-H23 lung = system: NCI-H23 lung
NCI-H522 lung = system: NCI-H522 lung
OVCAR-3 ovarian = system: OVCAR-3 ovarian
SF-539 CNS = system: SF-539 CNS
SK-MEL-2 melanoma = system: SK-MEL-2 melanoma
SW-620 colon = system: SW-620 colon
HL-60(TB) leukemia = system: HL-60(TB) leukemia
SNB-75 CNS = system: SNB-75 CNS
A498 renal = system: A498 renal

SMILES	TGI (A549 NSCLC)	TGI (HOP-62 NSCLC)	TGI (HOP-92 NSCLC)	TGI (IGROV1 ovarian)	TGI (MALME-3M melanoma)	TGI (NCI-H23 lung)	TGI (NCI-H522 lung)	TGI (OVCAR-3 ovarian)	TGI (SF-539 CNS)	TGI (SK-MEL-2 melanoma)	TGI (SW-620 colon)	TGI (HL-60(TB) leukemia)	TGI (SNB-75 CNS)	TGI (A498 renal)
O=c1cc(CO)n(CCc2c[nH]c3ccccc23)cc1O	> 100 µM	> 100 µM	99.7 µM	> 100 µM	57.5 µM	> 100 µM	78.7 µM	75.1 µM	> 100 µM	> 100 µM	> 100 µM			
COC(=O)c1ccc(Oc2nc3ccccc3nc2-c2cccs2)cc1	76.9 µM	24.9 µM		> 100 µM	> 100 µM	74.5 µM	> 100 µM	> 100 µM	> 100 µM	> 100 µM	> 100 µM	> 100 µM	26 µM	
Cc1cccc2[nH]c3cc(O)cc(O)c3c(=O)c12	> 10 µM	> 10 µM	> 10 µM	> 10 µM	> 10 µM	> 10 µM	> 10 µM	> 10 µM	> 10 µM	> 10 µM	> 10 µM		> 10 µM	
C=C(C)C#CC(O)(C(=O)OC1CCN(C)CC1)C(C)C (configuration not stated)	> 100 µM	> 100 µM		> 100 µM	> 100 µM	> 100 µM	> 100 µM	> 100 µM	> 100 µM		> 100 µM	> 100 µM	> 100 µM	
CC(NC(=O)C(OC(=O)C(C)NC(=O)OC(C)(C)C)C(C)C)C(=O)OC(C(=O)O)C(C)C (configuration not stated)	> 100 µM	> 100 µM	> 100 µM	> 100 µM	> 100 µM		> 100 µM	> 100 µM	> 100 µM	> 100 µM	> 100 µM		> 100 µM	
CN(C)/C(N)=N/C(N)=Nc1cccc(Cl)c1	> 100 µM	> 100 µM		77.9 µM	> 100 µM	> 100 µM		> 100 µM	> 100 µM	> 100 µM	> 100 µM		> 100 µM	
N#Cc1nc(C2CC2)oc1N	> 100 µM	> 100 µM	> 100 µM	> 100 µM	> 100 µM	> 100 µM	> 100 µM	> 100 µM	> 100 µM	> 100 µM	> 100 µM		> 100 µM	
Cc1nc2ccccc2c(=O)n1-c1n[nH]c2ccccc12	> 100 µM	> 100 µM	> 100 µM	> 100 µM	> 100 µM	> 100 µM	> 100 µM	> 100 µM	> 100 µM	> 100 µM	> 100 µM		> 100 µM	> 100 µM
N#Cc1nc(CSCc2ccccc2)oc1N	> 100 µM	> 100 µM	> 100 µM	> 100 µM	> 100 µM	> 100 µM	> 100 µM	> 100 µM	> 100 µM	> 100 µM	> 100 µM			> 100 µM
[N-]=[N+]=Nc1ccc(NCCCCCC(=O)ON2C(=O)CCC2=O)c([N+](=O)[O-])c1	> 100 µM	> 100 µM	87.6 µM	> 100 µM	> 100 µM	> 100 µM	> 100 µM	> 100 µM	> 100 µM	> 100 µM	> 100 µM	> 100 µM	> 100 µM	
O=c1[nH][nH]c(=O)[nH]1	> 100 µM	> 100 µM	> 100 µM	> 100 µM	> 100 µM	> 100 µM	> 100 µM	> 100 µM	> 100 µM	> 100 µM	> 100 µM	> 100 µM	> 100 µM	
CNC(=O)CCNC(=O)CCC(=O)N(C)C	> 100 µM	> 100 µM			> 100 µM	> 100 µM	> 100 µM	> 100 µM	> 100 µM	> 100 µM	> 100 µM			> 100 µM
CSc1ccccc1P(c1ccccc1SC)c1ccccc1SC	> 100 µM	> 100 µM	> 100 µM		> 100 µM	> 100 µM			> 100 µM	> 100 µM	> 100 µM			> 100 µM
CCCCC1Cc2ccccc2-c2n1c1ccccc1[n+]2C (configuration not stated)		> 100 µM	> 100 µM	> 100 µM		42.5 µM	27.9 µM	> 100 µM	> 100 µM	35.7 µM	> 100 µM	22.9 µM		> 100 µM
NCCC(=O)N[C@H](Cc1cc(O)c(O)c(SCC(NC(=O)CC[C@H](N)C(=O)O)C(=O)NCC(=O)O)c1)C(=O)O (some centres not stated)	> 50 µM	> 50 µM	> 50 µM	> 50 µM	> 50 µM	> 50 µM	> 50 µM			> 50 µM	> 50 µM		> 50 µM	> 50 µM
Cc1cccc(-n2c(C)nc3ccc(NC4OC(CO)C(O)C(O)C4O)cc3c2=O)c1 (configuration not stated)		> 100 µM		> 100 µM	> 100 µM	> 100 µM	> 100 µM	> 100 µM		> 100 µM	> 100 µM	> 100 µM	> 100 µM	> 100 µM
CC1(c2cccc3c2C2(O)C=CC4(CCC32)OCCO4)OCCO1 (configuration not stated)	> 100 µM	> 100 µM		> 100 µM	> 100 µM	> 100 µM	> 100 µM	> 100 µM	> 100 µM	> 100 µM	> 100 µM	> 100 µM	> 100 µM	> 100 µM
O=c1[nH]c(=O)n(C2CC(O)C(CO)O2)cc1OCCc1ccccc1 (configuration not stated)	> 100 µM	> 100 µM		> 100 µM	> 100 µM	> 100 µM	> 100 µM	> 100 µM				> 100 µM	> 100 µM	
CCC(CS(=O)(=O)O)[N+](=O)[O-] (configuration not stated)	> 100 µM	> 100 µM		> 100 µM	> 100 µM	> 100 µM	> 100 µM	> 100 µM	> 100 µM	> 100 µM	> 100 µM	> 100 µM	> 100 µM	> 100 µM
